The target in this experiment is ScoE (Streptomyces coeruleorubidus, UniProt A0A3B6UEU3). Conditions: alpha-KG, Fe(II).

As for `C[C@H](CC(=O)O)/N=C/C(=O)O` [compound 2, imine CABA], the Km came to 369 ± 40 µM.

One may read the Km as the concentration of substrate that gives half-maximal velocity.
